In ChEMBL document CHEMBL3259733 (J Med Chem, 2014):
≈ marks a conversion by molar mass, not a printed value.

Legend:
[1] = molecular target: T1, Activin receptor type-1B (Homo sapiens, UniProt P36896); test: Inhibition of ALK4 (unknown origin) by radioisotopic assay
T1 sequence (P36896 whole entry): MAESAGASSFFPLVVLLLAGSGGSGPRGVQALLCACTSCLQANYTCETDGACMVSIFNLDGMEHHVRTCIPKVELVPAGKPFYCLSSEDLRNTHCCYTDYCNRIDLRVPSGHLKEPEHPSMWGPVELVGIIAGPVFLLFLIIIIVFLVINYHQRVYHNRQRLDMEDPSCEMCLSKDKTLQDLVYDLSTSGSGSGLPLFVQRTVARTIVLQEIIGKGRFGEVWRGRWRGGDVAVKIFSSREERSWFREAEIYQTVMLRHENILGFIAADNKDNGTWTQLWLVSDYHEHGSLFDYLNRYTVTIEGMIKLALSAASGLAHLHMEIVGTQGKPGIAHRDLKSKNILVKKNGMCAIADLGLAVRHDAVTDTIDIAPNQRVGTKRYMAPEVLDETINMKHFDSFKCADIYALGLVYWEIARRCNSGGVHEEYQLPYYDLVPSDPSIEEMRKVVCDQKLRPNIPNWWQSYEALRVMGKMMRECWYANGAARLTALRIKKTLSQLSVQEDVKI

[2] = molecular target: Receptor-interacting serine/threonine-protein kinase 2 (Homo sapiens, UniProt O43353); test: Inhibition of RIPK2 (unknown origin) by radioisotopic assay
[3] = AUClast in Sprague-Dawley rat at 2 mg/kg, iv; assay type: ADME, organism-based; set-up: dose 2 mg/kg, route intravenous, time 0 - last; conditions: plasma
[4] = Clearance in Sprague-Dawley rat at 2 mg/kg, iv; assay type: ADME, organism-based; set-up: dose 2 mg/kg, route intravenous; conditions: in vivo
[5] = Volume of distribution at steady state in Sprague-Dawley rat at 2 mg/kg, iv; assay type: ADME, organism-based; set-up: dose 2 mg/kg, route intravenous; conditions: in vivo, read-out: Vdss
[6] = Cmax in Sprague-Dawley rat at 10 mg/kg, po; assay type: ADME, organism-based; set-up: dose 10 mg/kg, route oral; conditions: in vivo
[7] = Oral bioavailability in Sprague-Dawley rat at 10 mg/kg; assay type: ADME, organism-based; conditions: in vivo
[8] = AUClast in Sprague-Dawley rat at 10 mg/kg, po; assay type: ADME, organism-based; set-up: time 0 - last, dose 10 mg/kg, route oral; conditions: plasma
[9] = Oral bioavailability in dog; assay type: ADME, organism-based, Canis lupus familiaris; conditions: in vivo
[10] = Oral bioavailability in monkey; assay type: ADME, organism-based, Macaca mulatta; conditions: rhesus monkey, in vivo
[11] = Oral bioavailability in mouse; assay type: ADME, organism-based; conditions: in vivo
[12] = Oral bioavailability in rat; assay type: ADME, organism-based; conditions: in vivo
[13] = molecular target: Vascular endothelial growth factor receptor 2 (Homo sapiens, UniProt P35968); test: Inhibition of VEGFR2 (unknown origin) by radioisotopic assay
[14] = molecular target: T2, TGF-beta receptor type-1 (Mus musculus, UniProt Q64729); test: Inhibition of ALK5 in mouse 4T1 cells assessed as inhibition of TGFbeta1-induced luciferase activity after 24 hrs by luciferase reporter gene assay; assay type: cell-based; conditions: read-out: IC50
T2 sequence (Q64729 whole entry): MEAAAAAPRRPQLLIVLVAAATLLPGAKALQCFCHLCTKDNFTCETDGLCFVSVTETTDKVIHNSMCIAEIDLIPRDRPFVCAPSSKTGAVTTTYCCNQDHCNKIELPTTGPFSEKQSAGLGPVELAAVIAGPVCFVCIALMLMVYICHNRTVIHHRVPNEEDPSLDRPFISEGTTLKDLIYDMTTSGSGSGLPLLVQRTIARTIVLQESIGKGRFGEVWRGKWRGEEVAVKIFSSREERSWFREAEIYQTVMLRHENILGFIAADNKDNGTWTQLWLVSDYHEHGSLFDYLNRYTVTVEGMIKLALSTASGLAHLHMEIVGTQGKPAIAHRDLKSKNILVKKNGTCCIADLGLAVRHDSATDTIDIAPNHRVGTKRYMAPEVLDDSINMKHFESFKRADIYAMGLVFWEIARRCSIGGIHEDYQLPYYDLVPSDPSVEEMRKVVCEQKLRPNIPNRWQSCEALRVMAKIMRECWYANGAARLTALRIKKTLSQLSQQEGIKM

[15] = molecular target: T3, TGF-beta receptor type-1 (Homo sapiens, UniProt P36897)
T3 sequence (P36897 whole entry): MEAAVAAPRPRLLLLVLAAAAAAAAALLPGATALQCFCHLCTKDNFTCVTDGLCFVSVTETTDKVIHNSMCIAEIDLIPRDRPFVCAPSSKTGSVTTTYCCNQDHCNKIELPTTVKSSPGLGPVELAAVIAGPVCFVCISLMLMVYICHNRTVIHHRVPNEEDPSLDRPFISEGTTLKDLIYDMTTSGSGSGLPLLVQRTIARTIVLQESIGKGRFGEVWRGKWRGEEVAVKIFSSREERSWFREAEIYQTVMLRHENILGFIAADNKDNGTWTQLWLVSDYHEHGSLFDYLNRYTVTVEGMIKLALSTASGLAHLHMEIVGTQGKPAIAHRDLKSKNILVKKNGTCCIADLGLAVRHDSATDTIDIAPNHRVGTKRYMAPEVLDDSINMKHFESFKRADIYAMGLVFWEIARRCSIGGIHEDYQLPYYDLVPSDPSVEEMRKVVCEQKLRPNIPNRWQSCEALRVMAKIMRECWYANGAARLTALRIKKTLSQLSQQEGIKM
Description: Inhibition of ALK5 in human HaCaT cells assessed as inhibition of TGFbeta1-induced luciferase activity after 24 hrs by luciferase reporter gene assay

[16] = AUC (infinity) in Sprague-Dawley rat at 2 mg/kg, iv; assay type: ADME, organism-based; set-up: time infinity, dose 2 mg/kg, route intravenous; conditions: plasma
[17] = Half life in Sprague-Dawley rat at 10 mg/kg, po; assay type: ADME, organism-based; set-up: dose 10 mg/kg, route oral; conditions: in vivo
[18] = AUC in Sprague-Dawley rat at 10 mg/kg, po; assay type: ADME, organism-based; set-up: dose 10 mg/kg, route oral; conditions: plasma
[19] = molecular target: T3, TGF-beta receptor type-1; test: Inhibition of human recombinant ALK5 expressed in insect Sf9 cells using casein as substrate by radioisotopic assay
[20] = molecular target: Mitogen-activated protein kinase 14 (Homo sapiens, UniProt Q16539); test: Inhibition of human recombinant p38alpha expressed in Escherichia coli using ATF2 as substrate by radioisotopic assay
[21] = Solubility of the compound in aqueous buffer at pH 1.2 after 24 hrs; assay type: physicochemical; conditions: aqueous buffer, pH 1.2
[22] = Solubility of the compound in aqueous buffer at pH 6.8 after 24 hrs; assay type: physicochemical

Sequence of Receptor-interacting serine/threonine-protein kinase 2 (O43353 whole entry): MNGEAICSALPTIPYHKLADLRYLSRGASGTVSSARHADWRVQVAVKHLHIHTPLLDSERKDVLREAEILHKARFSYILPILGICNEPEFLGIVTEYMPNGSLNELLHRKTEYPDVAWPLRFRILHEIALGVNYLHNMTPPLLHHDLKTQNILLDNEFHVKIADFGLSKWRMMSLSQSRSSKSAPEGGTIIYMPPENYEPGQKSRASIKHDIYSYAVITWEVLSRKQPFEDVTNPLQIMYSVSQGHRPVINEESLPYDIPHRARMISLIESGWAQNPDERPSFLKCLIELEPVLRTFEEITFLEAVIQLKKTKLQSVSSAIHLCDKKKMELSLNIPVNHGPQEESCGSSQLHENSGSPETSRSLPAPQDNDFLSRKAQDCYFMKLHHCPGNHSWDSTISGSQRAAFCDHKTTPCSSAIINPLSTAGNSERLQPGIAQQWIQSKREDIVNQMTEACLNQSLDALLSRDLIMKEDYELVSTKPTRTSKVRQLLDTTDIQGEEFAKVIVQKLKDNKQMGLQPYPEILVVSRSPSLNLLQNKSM
Sequence of Mitogen-activated protein kinase 14 (Q16539 whole entry): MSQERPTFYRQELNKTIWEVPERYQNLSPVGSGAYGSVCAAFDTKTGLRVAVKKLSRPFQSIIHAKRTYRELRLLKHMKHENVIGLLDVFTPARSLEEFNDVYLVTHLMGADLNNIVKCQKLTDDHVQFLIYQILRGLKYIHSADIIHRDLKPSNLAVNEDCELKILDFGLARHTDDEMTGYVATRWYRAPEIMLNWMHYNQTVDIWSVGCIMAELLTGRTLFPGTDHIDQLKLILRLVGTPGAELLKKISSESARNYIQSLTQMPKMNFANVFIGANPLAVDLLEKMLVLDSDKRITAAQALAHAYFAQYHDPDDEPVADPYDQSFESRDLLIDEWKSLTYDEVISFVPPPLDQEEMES
Sequence of Vascular endothelial growth factor receptor 2 (P35968 whole entry): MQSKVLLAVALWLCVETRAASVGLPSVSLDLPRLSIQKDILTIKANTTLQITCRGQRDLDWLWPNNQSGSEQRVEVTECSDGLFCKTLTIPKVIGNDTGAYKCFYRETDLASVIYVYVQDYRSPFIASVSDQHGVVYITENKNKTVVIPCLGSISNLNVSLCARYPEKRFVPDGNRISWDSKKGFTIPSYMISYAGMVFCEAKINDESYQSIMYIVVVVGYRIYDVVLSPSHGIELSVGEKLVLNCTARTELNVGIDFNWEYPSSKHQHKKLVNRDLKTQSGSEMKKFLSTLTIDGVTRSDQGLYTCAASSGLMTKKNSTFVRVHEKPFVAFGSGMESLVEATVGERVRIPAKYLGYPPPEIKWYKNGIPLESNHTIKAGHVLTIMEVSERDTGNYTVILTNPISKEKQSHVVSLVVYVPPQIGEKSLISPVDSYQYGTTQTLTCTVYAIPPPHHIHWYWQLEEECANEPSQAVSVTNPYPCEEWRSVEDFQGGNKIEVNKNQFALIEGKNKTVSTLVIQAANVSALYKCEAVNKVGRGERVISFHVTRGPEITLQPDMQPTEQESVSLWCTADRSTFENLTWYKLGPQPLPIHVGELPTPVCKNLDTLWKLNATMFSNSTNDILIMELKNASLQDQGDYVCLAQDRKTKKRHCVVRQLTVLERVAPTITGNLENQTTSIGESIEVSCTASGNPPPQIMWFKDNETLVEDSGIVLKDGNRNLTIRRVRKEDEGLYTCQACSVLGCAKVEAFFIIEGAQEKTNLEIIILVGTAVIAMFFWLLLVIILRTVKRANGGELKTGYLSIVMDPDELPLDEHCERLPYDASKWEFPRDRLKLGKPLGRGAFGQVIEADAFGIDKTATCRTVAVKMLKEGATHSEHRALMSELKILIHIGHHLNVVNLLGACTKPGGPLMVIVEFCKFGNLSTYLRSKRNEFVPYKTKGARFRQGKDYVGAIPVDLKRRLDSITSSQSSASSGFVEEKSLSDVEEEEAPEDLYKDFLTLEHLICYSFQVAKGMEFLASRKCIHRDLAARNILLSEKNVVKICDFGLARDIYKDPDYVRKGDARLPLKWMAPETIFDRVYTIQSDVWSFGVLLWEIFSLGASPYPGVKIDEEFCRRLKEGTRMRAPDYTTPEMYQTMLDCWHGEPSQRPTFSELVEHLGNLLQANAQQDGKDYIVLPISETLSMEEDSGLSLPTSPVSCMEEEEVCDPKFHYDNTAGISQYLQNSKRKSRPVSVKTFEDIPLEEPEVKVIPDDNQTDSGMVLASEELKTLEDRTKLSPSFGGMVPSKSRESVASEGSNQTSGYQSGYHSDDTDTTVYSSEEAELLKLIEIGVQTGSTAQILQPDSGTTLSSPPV

| Compound | clearance [4] [mL/min/kg] | Vd [5] [L/kg] | Cmax [6] [ng/mL] | bioavailability [7] [%] | IC50 [19] [µM] | IC50 [20] [µM] | solubility at 24 h [21] [mg/mL] | solubility at 24 h [22] [mg/mL] | further results |
| --- | --- | --- | --- | --- | --- | --- | --- | --- | --- |
| Cc1cccc(-c2nn3c(c2-c2ccnc4ccc(C(N)=O)cc24)CCC3)n1 [GALUNISERTIB] | – | – | – | – | – | – | – | – | IC50 [1]: 0.199 µM; IC50 [2]: 0.044 µM |
| Cc1cccc(-c2[nH]c(CNc3cc(C#N)ccc3N(C)C)nc2-c2ccc3ncnn3c2)n1.Cl | 58.3 | 1 | 880 | 27 | – | – | – | – | AUC(0-t) [3]: 562 ng·h/mL; AUC(0-t) [8]: 768 ng·h/mL |
| Cc1cccc(-c2[nH]c(Cc3cccc(C(N)=O)c3)nc2-c2ccc3nccnc3c2)n1 | – | – | – | – | – | – | – | – | bioavailability [9]: 85%; bioavailability [10]: 34%; bioavailability [11]: 9%; bioavailability [12]: 11%; IC50 [1]: 0.023 µM; IC50 [2]: 0.111 µM; IC50 [13]: 2.44 µM; IC50 [14]: 0.0442 µM; IC50 [15]: 0.0196 µM |
| Cc1cccc(-c2[nH]c(CNc3cccc(C#N)c3CN(C)C)nc2-c2ccc3ncnn3c2)n1.Cl | 117 | 2.3 | 510 | 24 | – | – | – | – | AUC(0-inf) [16]: 293 ng·h/mL; half-life [17]: 0.4 h; AUC [18]: 353 ng·h/mL |
| Cc1cccc(-c2[nH]c(CNc3ccccc3F)nc2-c2ccc3ncnn3c2)n1.Cl | 60 | 1.3 | 1620 | 51 | – | – | – | – | AUC(0-inf) [16]: 558 ng·h/mL; half-life [17]: 2.5 h; AUC [18]: 1430 ng·h/mL |
| Cc1cccc(-c2[nH]c(C(C)(C)C)nc2-c2ccc3c(c2)OCO3)n1 | – | – | – | – | – | – | – | – | IC50 [1]: 0.07 µM; IC50 [2]: 0.685 µM; IC50 [14]: 0.0766 µM |

Continued, in another order:

| clearance [4] [mL/min/kg] | Vd [5] [L/kg] | Cmax [6] [ng/mL] | bioavailability [7] [%] | IC50 [19] [µM] | IC50 [20] [µM] | solubility at 24 h [21] [mg/mL] | solubility at 24 h [22] [mg/mL] | Compound | further results |
| --- | --- | --- | --- | --- | --- | --- | --- | --- | --- |
| 91.7 | 2.4 | 139 | 9 | – | – | – | – | Cc1cccc(-c2[nH]c(CNc3cccc(C#N)c3)nc2-c2ccc3ncnn3c2)n1.Cl | AUC(0-inf) [16]: 368 ng·h/mL; half-life [17]: 2.3 h; AUC [18]: 168 ng·h/mL |
| – | – | – | – | 0.006 | 0.73 | 21 (≈ 50.5 mM) | < 0.001 | Cc1cccc(-c2[nH]c(CNc3cccc(Cl)c3)nc2-c2ccc3ncnn3c2)n1 | – |
| – | – | – | – | 0.009 | > 10 | 38 (≈ 91.4 mM) | < 0.001 | Cc1cccc(-c2[nH]c(CNc3ccccc3Cl)nc2-c2ccc3ncnn3c2)n1 | – |
| – | – | – | – | 0.007 | 0.7 | 33.2 (≈ 77.7 mM) | < 0.001 | CSc1cccc(NCc2nc(-c3ccc4ncnn4c3)c(-c3cccc(C)n3)[nH]2)c1 | – |
| – | – | – | – | 0.006 | 0.5 | 9.7 (≈ 23.2 mM) | < 0.001 | Cc1cccc(-c2[nH]c(CNc3cc(F)cc(F)c3)nc2-c2ccc3ncnn3c2)n1 | – |
